Test results published in patent US10413545B2, “Imidazolin-5-one derivative useful as FASN inhibitors for the treatment of cancer” (Janssen Pharmaceutica NV, priority 2013, dated 2019).
Where two headings read alike, the source gives them in different places.

Columns and labels:
Assay type in all cases: cell-based
[1] = system: LNCaP_Vancouver prostate cells; test: In Vitro LNCaP Vancouver Prostate Cell Proliferation Assay in Lipid Reduced Medium; conditions: 10% lipid reduced serum, 96 h, ATP-glow luminescence; for IC50: Prostate cell, read-out: pIC50 LNCaP_Vancouver prostate cell (converted)
Description: LNCaP_Vancouver prostate cells were obtained from the Vancouver Prostate Cancer Centre.
(§1) The next day 10 μl of test compound/DMSO diluted in medium was added (3E-5M, 1E-5M, 3E-6M,1E-6M, 3E-7M, 1E-7M, 3E-8M, 1E-8M final concentration). Compounds were tested in duplicate. After 96 h incubation at 37° C., 5% CO2 25 μl ATP-glow mix was added. The plate was incubated for 30 min at 37° C. and luminescence was measured with the Envision.
(§2) Analysis: Determination of pIC50 Values
(§3) pIC50 values were calculated as follows. Raw data generated by the instruments were normalized to % Controlmin values, which were calculated as: % Controlmin=100*(x−mLC)/(mHC−mLC),
(§4) where mLC and mHC are the means of the low control wells and high control wells on the plate, after manual exclusion of outliers. The relation between the % Controlmin values and concentration was fitted to a 4-parameter logistic curve using a non-linear least squares regression method to determine the pIC50 value. Outlying data points were excluded manually to get a correct fit. The pIC50 corresponds to −log 10(IC50), if the IC50 is expressed in molar units (http://www.ncbi.nlm.nih.qovibooks/NBK91994). The IC50 parameter was always determined by non-linear regression, but one or more of the other parameters may have been held fixed on a relevant input value, such as 0 for the bottom values.

A2780 ovarian cells = test: A2780 Ovarian Cell Proliferation Assay in Lipid Reduced Medium, with and without Palmitate (MTT); conditions: Homo sapiens, 10% lipid-reduced serum, 96 h
Description: The biological assays described below correspond to comparative assays for ovarian cell proliferation.
2500 cells were seeded in a 96-well clear well plate in 200 μL RPM11640 with 10% Fetal Calf Serum (Hyclone), and incubated at 37° C., 5% CO2, Blanks were wells without cells. The next day the culture medium was aspirated and replaced by 160 μL culture medium with 10% Lipid-Reduced Serum (LRS, Hyclone). […] After 96 h incubation, an MTT assay was performed.
2500 cells were seeded in a 96-well clear well plate in 200 μL RPM11640 with 10% Fetal Calf Serum (Hyclone), and incubated at 37° C., 5% CO2. Blanks were wells without cells. The next day the culture medium was aspirated and replaced by 160 μL culture medium with 10% Lipid-Reduced Serum (LRS, Hyclone). 20 μL test compound (at concentrations of 30 μM, 10 μM, 3 μM, 1 μM, 0.30 μM, 0.10 μM, 0.03 μM and 0.01 μM)/DMSO dilution followed by 20 μL ethanol-BSA solution were added to a final concentrations of 0.2% DMSO, 0.2% fatty-acid-free BSA, 0.25% ethanol. After 96 h incubation an MTT assay was performed.
Raw data generated by the instrument were normalized to % Controlmin values, which were calculated as: % Controlmin=100*(x−mLC)/(mHC−mLC)
where mLC and mHC were the means of the low control wells and high control wells on the plate, after manual exclusion of outliers. A plot of Controlmin versus test compound concentration was fitted to a 4-parameter logistic curve using a non-linear least squares regression method.

[2] = system: PC-3M-Luc-C6 prostate cells; test: In Vitro PC-3M-Luc-C6 Prostate Cell Proliferation Assay in Lipid Reduced Medium; conditions: 10% lipid reduced serum, 96 h, ATP-glow luminescence; for IC50: Prostate cell, read-out: pIC50 PC-3M-Luc-C6 prostate cell (converted)
Description: PC-3M-Luc-C6 prostate cells were obtained from Xenogen Corporation. Cells were maintained in MEM supplemented with 10% Fetal Calf Serum (FCS, Hyclone), 2 mM glutamine, 1 mM sodium pyruvate, 1% BME vitamins (available from for example, Sigma Aldrich), 0.1 mM non Essential Amino Acid and 50 μg/ml Gentamicin. The cells were passaged twice a week.
as §1, with “μl” for “μl of”
as §2, §3, §4

[3] = 25 μM palmitate added (control), read-out: pIC50 With Palmitate (converted)
[4] = no palmitate, read-out: pIC50 Without Palmitate (converted)

Compound | IC50 [1] | IC50 (A2780 ovarian cells; [3]) | IC50 (A2780 ovarian cells; [4]) | pIC50 LNCaP_Vancouver prostate cell [1] | pIC50 PC-3M-Luc-C6 prostate cell [2] | IC50 [2]
Cn1cc(-c2ccc(-c3ccc(C4=NC(C)(C)C(=O)N4CC4CN(C(=O)C5CC5)C4)c(F)c3)cc2)cn1 [Compound 33, 1-((1-(cyclopropanecarbonyl)azetidin-3-yl)methyl)-2-(3-fluoro-4′-(1-methyl-1H-pyrazol-4-yl)-[1,1′-biphenyl]-4-yl)-4,4-dimethyl-1H-imidazol-5(4H)-one] | 2040 nM | > 10000 nM | 245 nM | – | – | –
CC1(C)N=C(c2ccc(-c3ccc4cccc(F)c4c3)cc2)N(CC2CN(C(=O)C3CC3)C2)C1=O [Compound 40, 1-((1-(cyclopropanecarbonyl)azetidin-3-yl)methyl)-2-(4-(8-fluoronaphthalen-2-yl)phenyl)-4,4-dimethyl-1H-imidazol-5(4H)-one] | 2040 nM | 5620 nM | 468 nM | – | – | –
CC1(C)N=C(c2ccc(-c3ccc4cncnc4c3)cc2F)N(CC2CN(C(=O)C3CC3)C2)C1=O [Compound 43, 1-((1-(cyclopropanecarbonyl)azetidin-3-yl)methyl)-2-(2-fluoro-4-(quinazolin-7-yl)phenyl)-4,4-dimethyl-1H-imidazol-5(4H)-one] | – | – | – | 5.63 | 6.06 | –
CC1(C)N=C(c2ccc(-c3ccc(-c4ccncc4)cc3)cc2F)N(C[C@@H]2CCN(C(=O)C3CC3)C2)C1=O [Compound 46, (R)-1-((1-(cyclopropanecarbonyl)pyrrolidin-3-yl)methyl)-2-(3-fluoro-4′-(pyridin-4-yl)-[1,1′-biphenyl]-4-yl)-4,4-dimethyl-1H-imidazol-5(4H)-one] | 407 nM | 9550 nM | 52.5 nM | – | – | –
CC1(C)N=C(c2ccc(-c3cccc4ncccc34)cc2F)N(C[C@@H]2CCN(C(=O)C3CC3)C2)C1=O [Compound 47, (R)-1-((1-(cyclopropanecarbonyl)pyrrolidin-3-yl)methyl)-2-(2-fluoro-4-(quinolin-5-yl)phenyl)-4,4-dimethyl-1H-imidazol-5(4H)-one] | 3550 nM | ~10000 nM | ~933 nM | – | – | –
CC1(C)N=C(c2ccc(-c3cnc4ccccc4c3)cc2F)N(C[C@@H]2CCN(C(=O)C3CC3)C2)C1=O [Compound 48, (R)-1-((1-(cyclopropanecarbonyl)pyrrolidin-3-yl)methyl)-2-(2-fluoro-4-(quinolin-3-yl)phenyl)-4,4-dimethyl-1H-imidazol-5(4H)-one] | 3980 nM | > 10000 nM | 537 nM | – | – | –
Cn1ncc2cc(-c3ccc(C4=NC(C)(C)C(=O)N4C[C@@H]4CCN(C(=O)C5CC5)C4)c(F)c3)ccc21 [Compound 53, (R)-1-((1-(cyclopropanecarbonyl)pyrrolidin-3-yl)methyl)-2-(2-fluoro-4-(1-methyl-1H-indazol-5-yl)phenyl)-4,4-dimethyl-1H-imidazol-5(4H)-one] | 724 nM | – | – | – | – | 132 nM
CC1(C)N=C(c2ccc(-c3ccc4cc(F)ccc4c3)cc2F)N(CC2CN(C(=O)C3CC3)C2)C1=O [Compound 54, 1-((1-(cyclopropanecarbonyl)azetidin-3-yl)methyl)-2-(2-fluoro-4-(6-fluoronaphthalen-2-yl)phenyl)-4,4-dimethyl-1H-imidazol-5(4H)-one] | 407 nM | – | – | – | – | 129 nM
CC1(C)N=C(c2ccc(-c3ccc4cccc(F)c4c3)cc2F)N(CC2CN(C(=O)C3CC3)C2)C1=O [Compound 55, 1-((1-(cyclopropanecarbonyl)azetidin-3-yl)methyl)-2-(2-fluoro-4-(8-fluoronaphthalen-2-yl)phenyl)-4,4-dimethyl-1H-imidazol-5(4H)-one] | 120 nM | – | – | – | – | 43.7 nM
CC1(C)N=C(c2ccc(-c3ccc4cnccc4c3)cc2F)N(CC2CN(C(=O)C3CC3)C2)C1=O [Compound 56, 1-((1-(cyclopropanecarbonyl)azetidin-3-yl)methyl)-2-(2-fluoro-4-(isoquinolin-6-yl)phenyl)-4,4-dimethyl-1H-imidazol-5(4H)-one] | 339 nM | – | – | – | – | 63.1 nM
CC1(C)N=C(c2ccc(-c3nc4ccccc4[nH]3)cc2F)N(C[C@@H]2CCN(C(=O)C3CC3)C2)C1=O [Compound 61, (R)-2-(4-(1H-benzo[d]imidazol-2-yl)-2-fluorophenyl)-1-((1-(cyclopropanecarbonyl)pyrrolidin-3-yl)methyl)-4,4-dimethyl-1H-imidazol-5(4H)-one] | 5010 nM | – | – | – | – | –
CC1(C)N=C(c2ccc(-c3c[nH]c4ccccc34)cc2F)N(CC2CN(C(=O)C3CC3)C2)C1=O [Compound 62, 1-((1-(cyclopropanecarbonyl)azetidin-3-yl)methyl)-2-(2-fluoro-4-(1H-indol-3-yl)phenyl)-4,4-dimethyl-1H-imidazol-5(4H)-one] | 776 nM | – | – | – | – | 1200 nM
Cc1cc(-c2ccc3c(cnn3C)c2)ccc1C1=NC(C)(C)C(=O)N1C[C@@H]1CCN(C(=O)C2(C)CC2)C1 [Compound 80, (R)-4,4-dimethyl-2-(2-methyl-4-(1-methyl-1H-indazol-5-yl)phenyl)-1-((1-(1-methylcyclopropanecarbonyl)pyrrolidin-3-yl)methyl)-1H-imidazol-5(4H)-one] | – | > 10000 nM | 45.7 nM | – | – | 17 nM
Cn1cc(-c2ccc(-c3ccc(C4=NC(C)(C)C(=O)N4CC4CN(C(=O)C5(O)CC5)C4)c(F)c3)cc2)cn1 [Compound 81, 2-(3-fluoro-4′-(1-methyl-1H-pyrazol-4-yl)-[1,1′-biphenyl]-4-yl)-1-((1-(1-hydroxycyclopropanecarbonyl)azetidin-3-yl)methyl)-4,4-dimethyl-1H-imidazol-5(4H)-one] | – | > 10000 nM | 229 nM | – | – | 661 nM
Cc1cc(-c2ccc3cc(F)ccc3c2)ccc1C1=NC(C)(C)C(=O)N1CC1CN(C(=O)C2(C)CC2)C1 [Compound 82] | – | 4370 nM | 14.5 nM | – | – | 64.6 nM
Cc1cc(-c2ccc3c(c2)ncn3C)ccc1C1=NC(C)(C)C(=O)N1CC1CN(C(=O)C2(C)CC2)C1 [Compound 83, 4,4-dimethyl-2-(2-methyl-4-(1-methyl-1H-benzo[d]imidazol-5-yl)phenyl)-1-((1-(1-methylcyclopropanecarbonyl)azetidin-3-yl)methyl)-1H-imidazol-5(4H)-one] | – | > 10000 nM | 25.7 nM | – | – | 42.7 nM
Cc1cc(-c2ccc(-c3cnn(C)c3)cc2)ccc1C1=NC(C)(C)C(=O)N1C[C@@H]1CCN(C(=O)C2(C)CC2)C1 [Compound 84] | – | 4370 nM | 3.31 nM | – | – | 7.76 nM
Cc1cc(-c2ccc3c(c2)ncn3C)ccc1C1=NC(C)(C)C(=O)N1C[C@@H]1CCN(C(=O)C2(C)CC2)C1 [Compound 85, (R)-4,4-dimethyl-2-(2-methyl-4-(1-methyl-1H-benzo[d]imidazol-5-yl)phenyl)-1-((1-(1-methylcyclopropanecarbonyl)pyrrolidin-3-yl)methyl)-1H-imidazol-5(4H)-one] | – | > 10000 nM | 3.89 nM | – | – | ~10.7 nM
Cc1cc(-c2ccc3cc(F)ccc3c2)ccc1C1=NC(C)(C)C(=O)N1C[C@@H]1CCN(C(=O)C2(C)CC2)C1 [Compound 86, (R)-2-(4-(6-fluoronaphthalen-2-yl)-2-methylphenyl)-4,4-dimethyl-1-((1-(1-methylcyclopropanecarbonyl)pyrrolidin-3-yl)methyl)-1H-imidazol-5(4H)-one] | – | ~7760 nM | 3.98 nM | – | – | 6.17 nM
